This is an account of results in patent publication US20080274544A1, “Promotor for Introducing Extracellular Substance into Mammalian Ovum and Introduction Method” (priority 2005, published 2008).

Assay [1] deals with zona pellucida-free mouse unfertilized oocytes. Nature of the assay: In vitro fertilization of zona pellucida-free oocytes, sperm-oocyte fusion. It is filed as cell-based. To be noted: for number of sperm which fused with the oocytes: zona pellucida-free oocytes, 1 hr after insemination, oocytes cultured 1 hr in 20 μM vinblastine or 10 μM paclitaxel, compared with untreated control (FIG. 1). The procedure:
(§1) • (1) Mice of eight week-old or older were purchased and made adapted to grow environment for 1 week before use. PMS (Serotoropin exclusive to animal, manufactured by ASUKA Pharmaceutical) was injected in an amount of 0.1 ml into the abdominal cavity of the mouse at 8:00 pm. • (2) 48 hr later, HCG (Gonadotropin exclusive to animal, manufactured by ASUKA Pharmaceutical) was injected in an amount of 0.1 ml into the abdominal cavity. • (3) Mice were euthanized the next day (14 to 16 hr after HCG injection), and the ampulla of oviduct was removed. An oocyte surrounded by cumulus cells was collected and cultured in a (100 μL) drop of TYH medium. • (4) Cumulus cells were removed by hyaluronidase (300 μg/mL) treatment, then the oocyte was cultured in TYH medium for 3 hr. In the case of conducting removal of zona pellucida, oocyte zona pellucida was removed by an acid Tyrode's solution treatment followed by culturing the oocyte in TYH medium for 3 hr. 2. Treatment with a Tubulin-Polymerization Inhibitor
(§2) The collected unfertilized oocyte of the mice was treated by using vinblastine (VB) as a tubulin-polymerization inhibitor. As controls, an oocyte treated with paclitaxel (Pac; Brand Name: taxol), tubulin-polymerization promoter, and an untreated oocyte (control) were used. Vinblastine (VB) treatment was conducted by culturing the oocyte in 20 μM of vinblastine solution (TYH medium) for 1 hr, while paclitaxel (Pac) treatment was conducted by culturing the oocyte in 10 μM of paclitaxelel (Pac) solution (TYH medium) similarly for 1 hr.
The mouse unfertilized oocyte was treated with vinblastine (VB), a tubulin-polymerization inhibitor, and in vitro fertilization was conducted with mouse sperm. […]
(In the case where zona pellucida-free oocytes were use): To quantify sperm-oocyte fusion efficiency, zona pellucida-free mouse unfertilized oocytes were treated with vinblastine (VB), a tubulin-polymerization inhibitor, or paclitaxel (Pac), tubulin-polymerization promoter, or left untreated (control). […]

For assay [2], the system named is mouse unfertilized oocytes with zona pellucida. Nature of the assay: In vitro fertilization of oocytes with zona pellucida, fertilization efficiency. The assay is classed as cell-based. As for the experimental part:
as §1, §2
The mouse unfertilized oocyte was treated with vinblastine (VB), a tubulin-polymerization inhibitor, and in vitro fertilization was conducted with mouse sperm. As controls, an unfertilized oocyte treated with paclitaxel (Pac; Brand Name: taxol), tubulin-polymerization promoter, and an untreated oocyte (control) were used. […]

“Also recorded” adds a separate entry of the source.

Regarding `CC(=O)O[C@H]1C(=O)[C@@]2(C)[C@H]([C@H](OC(=O)c3ccccc3)[C@]3(O)C[C@H](OC(=O)[C@H](O)[C@@H](NC(=O)c4ccccc4)c4ccccc4)C(C)=C1C3(C)C)[C@]1(OC(C)=O)CO[C@@H]1C[C@@H]2O` [paclitaxel], the sperm-oocyte membrane fusion entry in assay [1] (mouse unfertilized oocyte treated with tubulin-polymerization promoter) was “inhibited”. Moreover, the “number of sperm which fused with the oocytes” value in assay [1] is on record as “not fused”.

In the case of `CC[C@]1(O)C[C@@H]2CN(CCc3c([nH]c4ccccc34)[C@@](C(=O)OC)(c3cc4c(cc3OC)N(C)[C@H]3[C@@](O)(C(=O)OC)[C@H](OC(C)=O)[C@]5(CC)C=CCN6CC[C@]43[C@@H]65)C2)C1` [vinblastine], the “number of sperm which fused with the oocytes” value in assay [1] is on record as “largest number”. Also, the “increase of fertilization efficiency compared to untreated oocytes” value in assay [2] (2-cell-stage oocytes, oocytes cultured 1 hr in 20 μM vinblastine (FIG. 2)) was determined as 20%. Besides, in assay [2] (vinblastine treatment together with anti-mouse CD9 antibody), the “fusion efficiency of oocytes treated with anti-mouse CD9 antibody having a fusion-inhibitory effect” value is listed as “increased”. Also, the “fusion of immature oocytes with sperm” value in assay [2] (vinblastine-treated immature oocytes) is “could be fused with sperm; also recorded: could fuse with sperm”.
